SMILES strings stand for the structures.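 Briefly, cells in 96-well plates were exposed to five compound concentrations for 48 h, and endpoints were estimated by linear interpolation. GI50 is the concentration that inhibits growth by half.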 Calls of active or inactive are those of the source. Cut-off read from the data, not from the text of the source: active = GI50 up to about 1.1 µM and inactive = higher.

Common to all, as to test: DTP human tumour cell line panel, 48 h
In assay [1] the test system is ACHN.
The test system of assay [2] is CAKI-1.
Assay [3] concerns DU-145.
Assay [4] has as its system HCT-15.
For assay [5], the system named is K562.
Assay [6] deals with LOX IMVI.
In assay [7] the test system is MDA-MB-231.
For assay [8], the system named is MDA-MB-435.
For assay [9], the system named is MOLT-4.
The subject of assay [10] is NCI-H226.
Assay [11] relates to NCI-H460.
Assay [12] has as its system NCI/ADR-RES.
For assay [13], the system named is OVCAR-5.
Assay [14] has as its system RPMI-8226.
Assay [15] has as its system SF-295.
Assay [16] deals with SK-OV-3.
The test system of assay [17] is SN12C.
Assay [18] deals with SR.
The subject of assay [19] is U-251.
In assay [20] the test system is UACC-62.

For orientation: GI50 means the concentration giving 50% growth inhibition. Regarding `CC(=O)Oc1cc2c(cc1OCC(F)(F)F)[C@H]1CC[C@]3(C)[C@@H](OC(C)=O)CC[C@H]3[C@@H]1CC2=O`, the GI50 is 18.9 µM (inactive) in assay [1]; 17.4 µM (inactive) in [2]; 20.7 µM (inactive) in [3]; 16.6 µM in assay [4]; 16.6 µM (inactive) in assay [5]; 15.4 µM (inactive) in [6]. The GI50 in [7] was 11.1 µM (inactive); in assay [8] it was 21.6 µM (inactive); in assay [9] it was 15.6 µM (inactive); in assay [10] it was 46.6 µM (inactive); in assay [11] it was 26.9 µM (inactive); in [12] it was 15.3 µM (inactive). For the same compound, the GI50 in assay [13] is 19.8 µM (inactive); in [14], 22.3 µM (inactive); in [15], 25.1 µM (inactive); in assay [16] it was 22 µM (inactive); in [17], 21 µM (inactive); in [18], 20.7 µM (inactive). The GI50 in assay [19] is 16.4 µM (inactive); in assay [20], 12.2 µM (inactive).

On to `O=C(O)c1ccc2c(c1C(=O)O)C(=O)OC2(c1ccc(O)cc1)c1ccc(O)cc1`, for which the GI50 in [1] is > 100 µM (inactive); in assay [2], > 100 µM (inactive); in assay [3], > 100 µM (inactive); in [4] it was over 100 µM; in [5], > 100 µM (inactive); in assay [6], > 100 µM (inactive). For the same compound, the GI50 in [7], in [8], in assay [9], in [10], in [11] and in assay [12] was > 100 µM (inactive) in each case. The GI50 in assay [13], in assay [14], in assay [15], in assay [16], in [17] and in assay [18] was > 100 µM (inactive) throughout. Moreover, the GI50 in assay [19] and in assay [20] was > 100 µM (inactive) each time.

As for `N/C(=N\N=C\c1nc2ccccc2o1)c1cnccn1`, the GI50 was 70.8 µM (inactive) in assay [1]; > 100 µM (inactive) in [2]; > 100 µM (inactive) in assay [3]; over 100 µM in assay [4]; > 100 µM (inactive) in [5]; > 100 µM (inactive) in [6]. Besides, the GI50 in assay [7] is 51.2 µM (inactive); in [8], > 100 µM (inactive); in assay [9], > 100 µM (inactive); in [10], > 100 µM (inactive); in assay [11] it was 72.9 µM (inactive); in assay [12], > 100 µM (inactive). Besides, the GI50 was > 100 µM (inactive) in [13]; > 100 µM (inactive) in assay [14]; 87.9 µM (inactive) in [15]; 42.7 µM (inactive) in [16]; > 100 µM (inactive) in assay [17]; > 100 µM (inactive) in [18]. Moreover, the GI50 in assay [19] is 35.6 µM (inactive); in [20] it was > 100 µM (inactive).

Consider `COC(=O)C1C(=O)C=CN([C@H](C)c2ccccc2)[C@@H]1Cc1ccc(OC)c(OCc2ccccc2)c1I` (stereo not given in full), for which the GI50 was 23.2 µM (inactive) in assay [1]; 22 µM (inactive) in [2]; 18.2 µM (inactive) in assay [3]; 7.1 µM in [4]; 18.2 µM (inactive) in [5]; 14.5 µM (inactive) in [6]. For the same compound, the GI50 in assay [7] was 18.3 µM (inactive); in assay [8], 17 µM (inactive); in [9] it was 8.79 µM (inactive); in assay [10], 15.8 µM (inactive); in assay [11] it was 15.5 µM (inactive); in assay [12] it was 11.1 µM (inactive). In addition, the GI50 was 27.4 µM (inactive) in assay [13]; 14.9 µM (inactive) in assay [14]; 16.9 µM (inactive) in [15]; 34 µM (inactive) in [16]; 14.3 µM (inactive) in assay [17]; 3.14 µM (inactive) in [18]. The GI50 in [19] was 17.5 µM (inactive); in assay [20], 12.3 µM (inactive).

For `CC(C)/C(Cl)=N\OC(=O)Nc1ccc(F)c([N+](=O)[O-])c1`, the GI50 is 1.79 µM (inactive) in [1]; 1.81 µM (inactive) in assay [2]; 18.2 µM (inactive) in assay [3]; 2.59 µM in assay [4]; 2.87 µM (inactive) in assay [5]; 4.54 µM (inactive) in [6]. Moreover, the GI50 in assay [7] was 12.7 µM (inactive); in [8] it was 12.3 µM (inactive); in assay [9], 1.57 µM (inactive); in assay [10], 23.7 µM (inactive); in assay [11] it was 2.41 µM (inactive); in [12], 18.4 µM (inactive). For the same compound, the GI50 in assay [13] is 20.6 µM (inactive); in assay [14], 2.43 µM (inactive); in assay [15], 19.1 µM (inactive); in assay [16], 19.1 µM (inactive); in [17], 5.83 µM (inactive); in [18], 5.65 µM (inactive). Besides, the GI50 in assay [19] was 16.4 µM (inactive); in assay [20], 17.6 µM (inactive).

For `O=C1CC(c2cccc([N+](=O)[O-])c2)C2(C(=O)NC(=S)NC2=O)C(c2cccc([N+](=O)[O-])c2)C1` (stereo not given), the GI50 was 72.1 µM (inactive) in [1]; 12.9 µM (inactive) in [2]; 34.1 µM (inactive) in [3]; 25.5 µM in [4]; 52 µM (inactive) in assay [5]; 16.5 µM (inactive) in assay [6]. Moreover, the GI50 in assay [7] was 16.6 µM (inactive); in assay [8], 23.5 µM (inactive); in assay [9] it was 66.4 µM (inactive); in [10], 21 µM (inactive); in assay [11], 35.6 µM (inactive); in assay [12] it was > 100 µM (inactive). For the same compound, the GI50 in assay [13] was 39.9 µM (inactive); in assay [14], 59.7 µM (inactive); in assay [15], 34 µM (inactive); in [16] it was 32.7 µM (inactive); in assay [17] it was 19.9 µM (inactive); in assay [18] it was 49.4 µM (inactive). Moreover, the GI50 in assay [19] was 26.2 µM (inactive); in assay [20] it was 23.2 µM (inactive).

Take `CC1(C)[C@@H]2CC[C@@]1(C)C1(S[S+]1[O-])C21Cc2ccccc2C1` (stereo not given in full): the GI50 was 20.9 µM (inactive) in [1]; 20.4 µM (inactive) in [2]; 21.3 µM (inactive) in [3]; 22.6 µM in assay [4]; 17.4 µM (inactive) in [5]; 15.1 µM (inactive) in assay [6]. Moreover, the GI50 in assay [7] is 17.3 µM (inactive); in assay [8] it was 29.4 µM (inactive); in [9], 16.3 µM (inactive); in assay [10] it was > 100 µM (inactive); in [11], 21.5 µM (inactive); in assay [12] it was 25.6 µM (inactive). The GI50 in assay [13] is 20.6 µM (inactive); in [14], 21 µM (inactive); in [15], 57.1 µM (inactive); in assay [16] it was > 100 µM (inactive); in assay [17], 18.1 µM (inactive); in assay [18], 14.5 µM (inactive). The GI50 is 24.9 µM (inactive) in [19] and 22.2 µM (inactive) in assay [20].

For the origin of these results see ChEMBL document CHEMBL1201862, “PubChem BioAssay data set” (2004).
